Values after ≈ are worked out from the molar mass of the structure shown. Like-named read-outs stand apart in the source and are kept apart here. Where a SMILES comes first, the peptide text is derived from it. Where no end group is shown, it is not given here.
Assays:
[1] = tested on: Escherichia coli ATCC 9723H; type: cell-based
From the text: (§1) From the novel candidate AMP sequences predicted by AMPlify, 11 were selected for validation in vitro. Minimum inhibitory concentrations (MIC) and minimum bactericidal concentrations (MBC) were obtained using the AST procedures outlined by the Clinical and Laboratory Standards Institute (CLSI), with the recommended adaptations for testing cationic AMPs described by Hancock.
(§2) A panel of two Gram-positive and four Gram-negative bacterial isolates was generated to test predicted AMPs. Staphylococcus aureus ATCC 6538P, Streptococcus pyogenes (hospital isolate, unknown strain), Pseudomonas aeruginosa ATCC 10148, and Escherichia coli ATCC 9723H were obtained and tested at the University of Victoria. Additionally, a multi-drug resistant (MDR), carbapenemase-producing New-Delhi metallobetalactamase (CPO-NDM) clinical isolate of Escherichia coli was obtained from the BC Centre for Disease Control. E. coli ATCC 29522 was purchased from Cedarlane Laboratories (Burlington, Ontario, Canada) for comparison of AMP activity between a wild type, drug-susceptible control and the MDR strain. The latter two strains were tested at the BC Centre for Disease Control using identical AST procedures.
(§3) Bacteria were streaked onto nonselective nutrient agar from frozen stocks and incubated for 18–24 h at 37 °C. To prepare a standardized bacterial inoculum, isolated colonies were suspended in Mueller-Hinton Broth (MHB) and adjusted to an optical density of 0.08–0.1 at 600 nm, equivalent to a 0.5 McFarland standard and representing approximately 1–2 × 10^8 CFU/mL (CFU: colony forming units). The inoculum was diluted 1/250 in MHB to the target concentration of (5 ± 3) × 10^5 CFU/mL. Total viability counts from the final inoculum were examined to confirm the target bacterial density was obtained.
(§4) Selected candidate AMPs were purchased from Genscript (Piscataway, NJ), where they were synthesized using the vendor’s Flexpeptide platform. Lyophilized peptides were suspended in sterile ultrapure water or filter-sterilized 0.2% acetic acid as recommended by solubility testing reports provided with the GenScript synthesis. AMPs were diluted from 2560 to 5 μg/mL by a two-fold serial dilution in a 96-well polypropylene microtitre plate before 100 μl of the standardized bacterial inoculum of (5 ± 3) × 10^5 CFU/mL was added to each well. This generated a final test range of 256 to 0.5 μg/mL. MIC values were reported as the peptide concentration that produced no visible bacterial growth after a 16–24 h incubation at 37 °C.
(§5) For each AMP dilution series, the contents of the MIC well and the two adjacent wells containing two- and four-fold MIC were plated onto nonselective nutrient agar and incubated for 24 h at 37 °C. The concentration which killed 99.9% of the initial inoculum was determined to be the MBC.

[2] = tested on: Streptococcus pyogenes (unknown strain; hospital isolate); type: cell-based
From the text: as §1, §2, §3, §4, §5

[3] = tested on: MDR E. coli (CPO-NDM) clinical isolate; type: cell-based, Escherichia coli
From the text: as §1, §2, §3, §4, §5

[4] = tested on: all E. coli strains tested; type: cell-based, Escherichia coli
From the text: as §1, §2, §3, §4, §5

E. coli ATCC 25922 = type: cell-based, Escherichia coli
From the text: as §1
as §2, with “E. coli ATCC 29522 was purchased from Cedarlane Laboratories (Burlington, Ontario, Canada) for comparison of AMP activity between a wild type, drug-susceptible control and the MDR strain.” left out
as §3, §4, §5

[5] = tested on: at least one of the ten bacterial species tested: Bacillus subtilis, Micrococcus luteus, Staphyloccus aureus, Staphylococcus epidermis, Escherichia coli …; design: method as in Won and co-workers [2]; key: ✓: Whether the peptide shows antimicrobial activity against at least one of the ten bacterial species tested in the work; settings: activity against at least one of ten bacterial species; blank cell = not active; ref Won and co-workers [2]; cited from earlier work
[6] = tested on: Staphylococcus aureus ATCC 6538P; type: cell-based
From the text: as §1, §2, §3, §4, §5

[7] = range over all E. coli strains tested (ATCC 9723H, ATCC 25922, MDR CPO-NDM)

Compound | MBC ([1]; ATCC 9723) [µg/mL] | MBC ([1]; ATCC 9723, 24 h) [µM] | MBC [2] [µg/mL] | MIC [2] [µg/mL] | MBC ([2]; 24 h) [µM] | MBC [3] [µg/mL] | MBC ([3]; 24 h) [µM] | MBC ([4]; all strains tested) [µM] | MIC ([4]; all strains tested) [µM] | MBC (E. coli ATCC 25922; ATCC 25922) [µg/mL] | MBC (E. coli ATCC 25922; ATCC 25922, 24 h) [µM] | MIC [3] [µg/mL] | Active? [5] | MBC ([6]; ATCC 6538) [µg/mL] | MBC ([6]; ATCC 6538, 24 h) [µM] | MBC [4, 7] [µM] | MIC [4, 7] [µM] | MBC (E. coli ATCC 25922; E. coli ATCC 25922, as Table 3, in µg/mL, range over three independent experiments, NI = no inhibition observed) [µg/mL] | MBC (E. coli ATCC 25922; E. coli ATCC 25922, plated on agar 24 h at 37 °C, kills 99.9% of inoculum, range over three independent experiments, NI = no inhibition observed) [µM] | MIC ([6]; ATCC 6538) [µM]
CC[C@H](C)[C@H](NC(=O)[C@H](CCCCN)NC(=O)[C@@H](NC(=O)[C@H](C)NC(=O)[C@H](Cc1ccccc1)NC(=O)[C@H](CC(=O)O)NC(=O)[C@H](CCCCN)NC(=O)CNC(=O)[C@@H](NC(=O)[C@@H](NC(=O)[C@H](CCCCN)NC(=O)[C@@H](NC(=O)[C@@H](NC(=O)[C@H](CC(=O)O)NC(=O)[C@H](CC(C)C)NC(=O)[C@H](CC(C)C)NC(=O)CN)[C@@H](C)CC)[C@@H](C)CC)[C@@H](C)O)[C@@H](C)O)C(C)C)C(=O)N[C@@H](CC(C)C)C(=O)N[C@@H](CC(=O)O)C(=O)N[C@@H](CC(N)=O)C(=O)N[C@@H](CC(C)C)C(=O)N[C@@H](CCCCN)C(=O)N[C@@H](CS)C(=O)N[C@@H](CCCCN)C(=O)N[C@@H](CC(C)C)C(=O)N[C@@H](C)C(=O)NCC(=O)NCC(=O)N[C@@H](CS)C(=O)N1CCC[C@H]1C(=O)N1CCC[C@H]1C(=O)O [RaCa-1] (H-GLLDIIKTTGKDFAVKILDNLKCKLAGGCPP-OH; N-terminus and C-terminus assumed) | 128 to 256 | 39 to 79 | ≥ 256 | 256 (≈ 78.9 µM) | ≥ 79 | 64 to 128 | 20 to 39 | 10 to 79 | 10 to 39 | 32 to 128 | 10 to 39 | – | – | – | – | – | – | – | – | –
CC[C@H](C)[C@H](NC(=O)[C@H](CO)NC(=O)[C@H](CCCCN)NC(=O)CNC(=O)[C@@H](NC(=O)[C@@H](NC(=O)[C@H](CCCCN)NC(=O)[C@@H](NC(=O)[C@@H](NC(=O)[C@H](CCC(=O)O)NC(=O)[C@H](Cc1c[nH]c2ccccc12)NC(=O)[C@H](CC(C)C)NC(=O)CN)[C@@H](C)O)[C@@H](C)CC)[C@@H](C)O)[C@@H](C)O)C(=O)N[C@@H](C)C(=O)N[C@@H](CC(C)C)C(=O)N[C@@H](CC(N)=O)C(=O)N[C@@H](CC(C)C)C(=O)N[C@@H](CC(C)C)C(=O)N[C@@H](CC(=O)O)C(=O)N[C@@H](CCCCN)C(=O)N[C@H](C(=O)N[C@@H](CCCCN)C(=O)N[C@@H](CS)C(=O)N[C@@H](CCCCN)C(=O)N[C@H](C(=O)N[C@@H](C)C(=O)NCC(=O)NCC(=O)N[C@@H](CS)C(=O)N1CCC[C@H]1C(=O)N1CCC[C@H]1C(=O)O)[C@@H](C)CC)[C@@H](C)CC [RaCa-3] (H-GLWETIKTTGKSIALNLLDKIKCKIAGGCPP-OH; N-terminus and C-terminus assumed) | 16 to 32 | 5 to 10 | – | – | – | 16 to 64 | 5 to 20 | 2 to 20 | 2 to 10 | 8 to 16 | 2 to 5 | 16 to 32 | – | – | – | – | – | – | – | –
Gaegurin 5 [GGN5] | – | – | – | – | – | – | – | – | – | – | – | – | ✓ | – | – | – | – | – | – | –
CC[C@H](C)[C@H](NC(=O)[C@@H](NC(=O)[C@@H]1CCCN1C(=O)[C@H](Cc1ccccc1)NC(=O)[C@@H](N)Cc1ccccc1)[C@@H](C)CC)C(=O)N[C@@H](C)C(=O)N[C@@H](CCCNC(=N)N)C(=O)N[C@@H](CC(C)C)C(=O)N[C@@H](C)C(=O)N[C@@H](C)C(=O)N[C@@H](CCCCN)C(=O)N[C@H](C(=O)N[C@H](C(=O)N1CCC[C@H]1C(=O)N[C@@H](CO)C(=O)N[C@@H](CC(C)C)C(=O)N[C@H](C(=O)N[C@@H](CS)C(=O)N[C@@H](C)C(=O)N[C@H](C(=O)N[C@H](C(=O)N[C@@H](CCCCN)C(=O)N[C@@H](CCCCN)C(=O)N[C@@H](CS)C(=O)O)[C@@H](C)O)C(C)C)C(C)C)[C@@H](C)CC)C(C)C [RaCa-2] (H-FFPIIARLAAKVIPSLVCAVTKKC-OH; N-terminus and C-terminus assumed) | 8 to 16 | 3 to 6 | 64 to 128 | – | 25 to 49 | 4 to 16 | 2 to 6 | – | 2 to 6 | 4 to 16 | 2 to 6 | 4 to 16 | – | 2 to 4 | 1 to 2 | – | – | – | – | –
CC[C@H](C)[C@H](NC(=O)[C@H](CCCCN)NC(=O)[C@H](CCC(=O)O)NC(=O)[C@H](CCCCN)NC(=O)[C@H](CO)NC(=O)[C@H](CCCCN)NC(=O)[C@H](CCCNC(=N)N)NC(=O)[C@H](Cc1ccccc1)NC(=O)[C@H](Cc1ccccc1)NC(=O)[C@H](CC(=O)O)NC(=O)CNC(=O)[C@H](CC(C)C)NC(=O)[C@@H](N)CC(C)C)C(=O)NCC(=O)N[C@@H](CCCCN)C(=O)N[C@@H](CCC(=O)O)C(=O)N[C@@H](Cc1ccccc1)C(=O)N[C@@H](CCCCN)C(=O)N[C@@H](CCCNC(=N)N)C(=O)N[C@H](C(=O)N[C@H](C(=O)N[C@@H](CCC(N)=O)C(=O)N[C@@H](CCCNC(=N)N)C(=O)N[C@H](C(=O)N[C@@H](CCCCN)C(=O)N[C@@H](CC(=O)O)C(=O)N[C@@H](Cc1ccccc1)C(=O)N[C@@H](CC(C)C)C(=O)N[C@@H](CCCNC(=N)N)C(=O)N[C@@H](CC(N)=O)C(=O)N[C@@H](CC(C)C)C(=O)N[C@H](C(=O)N1CCC[C@H]1C(=O)N[C@@H](CCCNC(=N)N)C(=O)N[C@H](C(=O)N[C@@H](CCC(=O)O)C(=O)N[C@@H](CO)C(=O)O)[C@@H](C)O)C(C)C)[C@@H](C)CC)C(C)C)[C@@H](C)CC [LL37, reference compound] | – | – | – | – | – | – | – | – | – | – | – | – | – | – | – | 2 to 7 | 2 to 4 | 8 to 16 | 2 to 4 | –
FFPRVLPLANKFLPTIYCALPKSVGN [RaCa-7] | 32 to 256 | 11 to 88 | – | – | – | 16 to 128 | 6 to 44 | 6 to 88 | 6 to 44 | 16 to 128 | 6 to 44 | – | – | – | – | – | – | – | – | ≥ 88

From publication PMC8788131, “AMPlify: attentive deep learning model for discovery of novel antimicrobial peptides effective against WHO priority pathogens” (BMC Genomics, 2022)
